Data reported in PubChem BioAssay AID2060498 (Molecular Pharmacology Branch, DTP, NCI, 2025).

Test system: 171881-019-R-J1-PDC tumor spheroids, viability
Assay: Anticancer human tumor 171881-019-R-J1-PDC patient-derived invasive breast carcinoma cell line growth inhibition [GQUAD]
Settings: spheroids with HUVEC and MSC; for IC50: curve of first compound; for viability, T/C: stronger effect = lower value
Method in brief: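 Multi-cell-type spheroids of tumor cells with HUVEC and mesenchymal stem cells, treated with drug combinations. Concentrations descend in half-log steps from near clinical Cmax, or from 10 microM where Cmax is unknown; viability read-out.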

[1] = second compound 0.0316 µM, first compound 0.0316 µM
[2] = second compound 0.0316 µM, first compound 0.316 µM
[3] = second compound 0.1 µM, first compound 0.0316 µM
[4] = second compound 0.1 µM, first compound 0.316 µM
[5] = second compound 0.316 µM, first compound 0.0316 µM
[6] = second compound 0.316 µM, first compound 0.316 µM
[7] = second compound 1 µM, first compound 0.0316 µM
[8] = second compound 1 µM, first compound 0.316 µM
[9] = second compound 3.16 µM, first compound 0.0316 µM
[10] = second compound 3.16 µM, first compound 0.316 µM
[11] = second compound 10 µM, first compound 0.0316 µM
[12] = second compound 10 µM, first compound 0.316 µM
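Also: spheroids exposed to compounds for 7 days.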
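For viability, T/C in this document: 100% = DMSO vehicle control viability.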

## CCc1c2c(nc3ccc(O)cc13)-c1cc3c(c(=O)n1C2)COC(=O)[C@]3(O)CC + Cc1[nH]c2ccc(F)cc2c1-c1nc2c3cccnc3c3ncccc3c2[nH]1
Second compound 0.0316 µM
  IC50: 2.72 nM
Second compound 0.1 µM
  IC50: 2.74 nM
Second compound 0.316 µM
  IC50: 2.61 nM
Second compound 1 µM
  IC50: 2.24 nM
Second compound 3.16 µM
  IC50: < 0.999 nM
Second compound 10 µM
  IC50: < 0.999 nM
Second compound 0.0316 µM, first compound 0.000999 µM
  viability, T/C: 80.3%
Second compound 0.0316 µM, first compound 0.00316 µM
  viability, T/C: 42.4%
Second compound 0.0316 µM, first compound 0.00999 µM
  viability, T/C: 35.7%
[1]
  viability, T/C: 33.1%
Second compound 0.0316 µM, first compound 0.0999 µM
  viability, T/C: 25.8%
[2]
  viability, T/C: 23.3%
Second compound 0.1 µM, first compound 0.000999 µM
  viability, T/C: 78.6%
Second compound 0.1 µM, first compound 0.00316 µM
  viability, T/C: 43.2%
Second compound 0.1 µM, first compound 0.00999 µM
  viability, T/C: 35.6%
[3]
  viability, T/C: 33.8%
Second compound 0.1 µM, first compound 0.0999 µM
  viability, T/C: 28.5%
[4]
  viability, T/C: 22.6%
Second compound 0.316 µM, first compound 0.000999 µM
  viability, T/C: 74.4%
Second compound 0.316 µM, first compound 0.00316 µM
  viability, T/C: 42.9%
Second compound 0.316 µM, first compound 0.00999 µM
  viability, T/C: 34.8%
[5]
  viability, T/C: 33.4%
Second compound 0.316 µM, first compound 0.0999 µM
  viability, T/C: 27%
[6]
  viability, T/C: 23.4%
Second compound 1 µM, first compound 0.000999 µM
  viability, T/C: 66.6%
Second compound 1 µM, first compound 0.00316 µM
  viability, T/C: 39.5%
Second compound 1 µM, first compound 0.00999 µM
  viability, T/C: 34.4%
[7]
  viability, T/C: 27.8%
Second compound 1 µM, first compound 0.0999 µM
  viability, T/C: 23.6%
[8]
  viability, T/C: 18.7%
Second compound 3.16 µM, first compound 0.000999 µM
  viability, T/C: 19.9%
Second compound 3.16 µM, first compound 0.00316 µM
  viability, T/C: 14.7%
Second compound 3.16 µM, first compound 0.00999 µM
  viability, T/C: 14.6%
[9]
  viability, T/C: 11%
Second compound 3.16 µM, first compound 0.0999 µM
  viability, T/C: 10.2%
[10]
  viability, T/C: 7.94%
Second compound 10 µM, first compound 0.000999 µM
  viability, T/C: 32%
Second compound 10 µM, first compound 0.00316 µM
  viability, T/C: 33.6%
Second compound 10 µM, first compound 0.00999 µM
  viability, T/C: 25.1%
[11]
  viability, T/C: 19.4%
Second compound 10 µM, first compound 0.0999 µM
  viability, T/C: 17%
[12]
  viability, T/C: 12.5%

## COc1cc(C2c3cc4c(cc3C(OC3OC5COC(C)OC5C(O)C3O)C3COC(=O)C23)OCO4)cc(OC)c1O (centres undefined) + Cc1[nH]c2ccc(F)cc2c1-c1nc2c3cccnc3c3ncccc3c2[nH]1
Second compound 0.0316 µM
  IC50: 946 nM
Second compound 0.1 µM
  IC50: 765 nM
Second compound 0.316 µM
  IC50: 826 nM
Second compound 1 µM
  IC50: 862 nM
Second compound 3.16 µM
  IC50: < 31.6 nM
Second compound 10 µM
  IC50: < 31.6 nM
[1]
  viability, T/C: 93.2%
Second compound 0.0316 µM, first compound 0.1 µM
  viability, T/C: 88.2%
[2]
  viability, T/C: 74.5%
Second compound 0.0316 µM, first compound 1 µM
  viability, T/C: 46.9%
Second compound 0.0316 µM, first compound 3.16 µM
  viability, T/C: 33.3%
Second compound 0.0316 µM, first compound 10 µM
  viability, T/C: 22.6%
[3]
  viability, T/C: 97.9%
Second compound 0.1 µM, first compound 0.1 µM
  viability, T/C: 98.4%
[4]
  viability, T/C: 77.7%
Second compound 0.1 µM, first compound 1 µM
  viability, T/C: 40.8%
Second compound 0.1 µM, first compound 3.16 µM
  viability, T/C: 33.3%
Second compound 0.1 µM, first compound 10 µM
  viability, T/C: 24.2%
[5]
  viability, T/C: 98.7%
Second compound 0.316 µM, first compound 0.1 µM
  viability, T/C: 92.2%
[6]
  viability, T/C: 72.8%
Second compound 0.316 µM, first compound 1 µM
  viability, T/C: 43.8%
Second compound 0.316 µM, first compound 3.16 µM
  viability, T/C: 33.3%
Second compound 0.316 µM, first compound 10 µM
  viability, T/C: 23.1%
[7]
  viability, T/C: 80.1%
Second compound 1 µM, first compound 0.1 µM
  viability, T/C: 87.6%
[8]
  viability, T/C: 66.3%
Second compound 1 µM, first compound 1 µM
  viability, T/C: 45.2%
Second compound 1 µM, first compound 3.16 µM
  viability, T/C: 37.7%
Second compound 1 µM, first compound 10 µM
  viability, T/C: 23.4%
[9]
  viability, T/C: 28.9%
Second compound 3.16 µM, first compound 0.1 µM
  viability, T/C: 18.7%
[10]
  viability, T/C: 22.6%
Second compound 3.16 µM, first compound 1 µM
  viability, T/C: 18.7%
Second compound 3.16 µM, first compound 3.16 µM
  viability, T/C: 17.7%
Second compound 3.16 µM, first compound 10 µM
  viability, T/C: 11.5%
[11]
  viability, T/C: 40%
Second compound 10 µM, first compound 0.1 µM
  viability, T/C: 50.6%
[12]
  viability, T/C: 35%
Second compound 10 µM, first compound 1 µM
  viability, T/C: 33.5%
Second compound 10 µM, first compound 3.16 µM
  viability, T/C: 26.5%
Second compound 10 µM, first compound 10 µM
  viability, T/C: 15.8%
